In patent US20070219224A1, “Compositions and Methods Relating to Pyrimidine Synthesis Inhibitors” (UAB RESEARCH FOUNDATION, THE, priority 2004, published 2007):
Entries after “also recorded” stand apart in the source; their conditions may differ. Read-outs that look alike come from different tables or passages of the source.

Columns and labels:
[1] = tested on: RSV-infected BALB/c mice; assay: Mean peripheral blood oxygen saturation (SmO2), pulse oximetry; assay type: in vivo; settings: d2
Description: Measurement of mean peripheral blood oxygen saturation. Peripheral blood oxygen saturation was measured in conscious mice, using a PREEMIE OXYTIP® sensor (Datex-Olmeda, hic., Madison, Wis.), connected to a TUFFSAT™ pulse oximeter (Datex-Ohmeda, Inc., Madison, Wis.). Because of the extremely rapid pulse rate of the mouse, oximetry values are mean hemoglobin O2 saturation (SmO2) values from arterial and venous blood.
(§1) Systemic inhibition of de novo pyrimidine and purine synthesis. Leflunomide (5-methylisoxazole-4-[4-trifluoromethyl]carboxanilide, 35 mg/kg in distilled water containing 1% methylcellulose) was administered once daily by oral gavage in a volume of 300 μl/mouse for 8 days prior to infection, then throughout the infection period. Vehicle controls were gavaged with an equivalent volume of 1% methylcellulose in distilled water. Uridine (1 g/kg in 0.9% NaCl) was administered by i.p. injection every 12 hours in a volume of 100 μl (8). 6-MP (35 mg/kg in 1N NaOH, pH adjusted to 7.9 with 2 M Na2HPO4) was administered by i.p. injection every 24 hours in a volume of 100 μl, for 5 days prior to infection, then throughout the infection period.

[2] = tested on: RSV-infected BALB/c mice; assay: Heart rate change with ventilation (% ΔHR30), ECG; assay type: in vivo; settings: RSV-infected mice during AFC procedures, d2
Description: Measurement of heart rate changes with ventilation. ECG tracings were used to measure heart rate (number of QRS complexes/cm) at the start (HRSTART) and end (HREND) of the AFC assay. The % change in rate over the 30-minute ventilation period (% ΔHR30) was calculated as (HRSTART−HREND)/HRSTART.
as §1

[3] = assay type: in vivo; settings: for body weight loss after RSV infection: D1 and d2 p.i., versus untreated RSV-infected mice
Description: Preparation of viral inocula and infection of mice. Preparation of viral stocks and intranasal infection of eight to twelve week-old pathogen-free BALB/c mice of either sex with RSV strain A2 (10^6 PFU in 100 μl) were performed as described in Davis et al., “Nucleotide-mediated inhibition of alveolar fluid clearance in BALB/c mice after respiratory syncytial virus infection,” Am. J. Physiol. Lung Cell Mol. Physiol. 286:L112-L120. (2004). Data for each experimental group was derived from a minimum of 2 independent infections.
Systemic inhibition of de novo pyrimidine and purine synthesis. Leflunomide (5-methylisoxazole-4-[4-trifluoromethyl]carboxanilide, 35 mg/kg in distilled water containing 1% methylcellulose) was administered once daily by oral gavage in a volume of 300 μl/mouse for 8 days prior to infection, then throughout the infection period. Vehicle controls were gavaged with an equivalent volume of 1% methylcellulose in distilled water. […]

In the case of Cc1oncc1C(=O)Nc1ccc(C(F)(F)F)cc1 [Leflunomide, 5-methylisoxazole-4-[4-trifluoromethyl]carboxanilide], the “SmO2 (mean blood O2 saturation)” value [1] is reported as “improved mean blood O2 saturation; also recorded: normalization of SmO2 readings”, the “% ΔHR30” value [2] is reported as “prevented the increase in % ΔHR30” and the “body weight loss after RSV infection” value [3] is reported as “significantly reduced the degree of weight loss”. The “body weight loss after RSV infection” value ([3]; listed as LEF) was “significant reduction in weight loss”, the “body weight loss after RSV infection” value ([3]; listed as leflunomide) was “significantly reduced the degree of weight loss” and the “body weight during the pretreatment (preinfection) period” value ([3]; before RSV infection, leflunomide 8 days, 6-MP 5 days) was “no significant decline in body weight”. The “toxicity (inferred from body weight)” value ([3]; mouse, in vivo) was “very limited leflunomide toxicity”.
